# Values of other authors, collected in patent US20040096420A1, “Compositions and methods for treating baldness” (priority 2000, published 2004).
# Tested on: genetic hair loss
# Conditions: dosages from 75 to 100 mg per day; Rushton and Ramsay, 1992; Rushton et al. 1991
smiles,measurement,value
CC(=O)S[C@@H]1CC2=CC(=O)CC[C@]2(C)[C@H]2CC[C@@]3(C)[C@@H](CC[C@@]34CCC(=O)O4)[C@H]12 [spironolactone],benefit in hair loss,some benefit
